Source: paper PMC10178166, “NanoLuc Luciferase as a Fluorogen-Activating Protein for GFP Chromophore Based Fluorogens” (International Journal of Molecular Sciences, 2023)
Read-outs that look alike come from different tables or passages of the source.

Target: T1, NanoLuc (Oplophorus gracilirostris, UniProt Q9GV45, A31E/A60N/A81I/F95D/I117V/K70R/L54V/L99Q/M102K/N193R/P142E/Q151K/Q38R/Q45L/V71I/Y165I)
T1 construct: Engineered 19 kDa subunit variant (NanoLuc, about 171 residues, no signal peptide)
Test: spectrofluorometric titration
Type: binding
Text: spectrofluorometric titration on NanoLuc

T1 sequence (Q9GV45 28-196 with the stated changes): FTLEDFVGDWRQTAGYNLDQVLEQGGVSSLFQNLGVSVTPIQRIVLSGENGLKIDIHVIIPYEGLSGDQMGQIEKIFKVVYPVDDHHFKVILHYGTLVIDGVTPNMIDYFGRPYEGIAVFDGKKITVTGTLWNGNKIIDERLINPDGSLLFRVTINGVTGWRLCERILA

## O=C1/C(=C/c2ccc[nH]2)N=C(/C=C/c2ccccc2)N1Cc1ccccc1 (mixture of isomers) [4bc]
read-out: [drawing 2] / [drawing 5] / 4bc
  Kd: 590 ± 40 nM

## O=C1/C(=C/c2ccc[nH]2)N=C(/C=C/c2cccs2)N1Cc1ccccc1 (mixture of isomers) [4bh]
read-out: [drawing 2] / [drawing 4] / 4bh
  Kd: 320 ± 20 nM

## O=C1/C(=C/c2ccc[nH]2)N=C(/C=C/c2ccccc2)N1CCc1ccc(O)cc1 (mixture of isomers) [4cc]
read-out: [drawing 3] / [drawing 7] / 4cc
  Kd: 550 ± 40 nM
